Laboratory results published in patent publication US9834534B2, “Neuraminidase inhibitor compounds, compositions and methods for the use thereof in anti-viral treatments” (THE UNIVERSITY OF BRITISH COLUMBIA, priority 2009, dated 2017).

Legend:
Fukui H3N2 E119V = assay type: cell-based, influenza A virus
sH1N1/01 H274Y = assay type: cell-based, influenza A virus; details: read-out: IC50 sH1N/01 H274Y
B/Perth D197E = assay type: cell-based, influenza B virus; details: read-out: sensitivity to inhibitors, B/Perth D197E
Auckland pH1N1 E119K = assay type: cell-based, influenza A virus; details: pH 1
Sol Isl sH1N1 E119A = assay type: cell-based, influenza A virus
sH1N1/08 H274Y = assay type: cell-based, influenza A virus
[1] = system: B/Florida E119D (B/Florida/4/2006 mutant 1 E117D); assay type: cell-based, influenza B virus

Row | Structure (SMILES) | IC50 (Fukui H3N2 E119V) | IC50 (sH1N1/01 H274Y) | IC50 (B/Perth D197E) | IC50 (Auckland pH1N1 E119K) | IC50 (Sol Isl sH1N1 E119A) | IC50 (sH1N1/08 H274Y) | IC50 [1]
1 | CC(=O)NC1C(NC(=N)N)C(F)C(F)(C(=O)O)OC1[C@H](O)[C@H](O)CO (stereo partly drawn) [4-G3Feq diF SA, 5-Acetamido-2,4,5-trideoxy-2α, 3β-difluoro-4-guanidino-α-D-erythro-L-gluco-nonulopyranosonate] | 2400 nM | 43.5 nM | 8 nM | […] |  |  | 
2 | CC(=O)N[C@@H]1C(NC(=N)N)C(F)[C@](F)(C(=O)O)OC1[C@H](O)[C@H](O)CO (stereo partly drawn) [Compound 12, (2R,3R)-4-Guanyl-2,4-dideoxy-2,3-difluorosialic acid] | 998000 nM | 217 nM | 162 nM | […] | […] |  | 
3 | CCOC(=O)C1=C[C@@H](OC(CC)CC)[C@H](NC(C)=O)[C@@H](N)C1 [Oseltamivir] | 260000 nM | 2440 nM |  | 147 nM | 419 nM | 2000 nM | 1200 nM
4 | CC(=O)N[C@H]1[C@H]([C@H](O)[C@H](O)CO)OC(C(=O)O)=C[C@@H]1N=C(N)N [Zanamivir, reference compound] | 3400 nM |  | 258 nM | > 100000 nM | > 10000 nM | 2 nM | > 10000 nM
